Columns and labels:
[1] = system: weeds; Sugarcane (var. CTC 20); assay: Ex17 PRE greenhouse; assay type: in vivo; conditions: weed and rate in the words
Experimental: In this example a study was conducted to determine weed efficacy and sugarcane injury when 2,4 DC or isoxaflutole are applied either alone or tank-mix as preemergence against the weeds: Ivyleaf morningglory (Ipomoea hederacea, IPOHE), hairy beggartickss (Bidens pilosa, BIDPI), yellow nutsedge (Cyperus esculentus, CYPES), large crabgrass (Digitaria sanguinalis, DIGSA), and redroot pigweed (Amaranthus retroflexus, AMARE). The crop tested in this study was Sugarcane (var. CTC 20).
To determine weed efficacy and sugarcane selectivity, 2,4 DC (SC 36%) and isoxaflutole (Balance Flexx®, 20%) were applied PRE either alone or as tank-mix partners at rates mentioned below. 2,4 DC was applied at 500, 750, and 1000 g ai/ha while isoxaflutole was applied at 80, 100, and 120 g ai/ha. […] Treatments were applied PRE to sugarcane (var. CTC 20), ivyleaf morningglory, hairy beggarticks, yellow nutsedge, large crabgrass, and redroot pigweed. Weed species were planted in fiber flats (6″×10″) containing Pennington soil. Soil was watered before application and watered lightly after application. Flats were watered and fertilized routinely after treatment application.

Annual bluegrass = assay: Ex34 PRE 2,4-DC + napropamide, % control, Colby; assay type: in vivo, Poa annua; conditions: 28 DAT
Description: Thereafter flats were watered and fertilized routinely.

In the case of `CC1(C)CON(Cc2ccc(Cl)cc2Cl)C1=O` [2,4-DC, 2-(2,4-dichlorophenyl)methyl-4,4-dimethyl-3-isoxazolidinone], the “weed control in words” value [1] was “Large crabgrass and redroot pigweed were controlled with 2,4 DC alone at 500 g or higher rates”, the X (Annual bluegrass; 2,4-DC alone 31 g ai/ha) was 0% and the X (Annual bluegrass; 2,4-DC alone 63 g ai/ha) was 2%. It also gave an X (Annual bluegrass; 2,4-DC alone 125 g ai/ha) of 12%, an X (Annual bluegrass; 2,4-DC alone 250 g ai/ha) of 40% and an X (Annual bluegrass; 2,4-DC alone 375 g ai/ha) of 63%.

Reference: patent publication US12616203B2, “Use of 3-isoxazolidinones compounds as selective herbicides” (FMC Corporation, priority 2014, dated 2026)
